Results taken from patent US6495525B1, “VLA-4 inhibitor: oMePUPA-V” (Biogen, Inc., priority 1998, dated 2002).
≈ marks a conversion by molar mass, not a printed value. Entries after “also recorded” stand apart in the source; their conditions may differ.

Assays:
[1] = Bulk / drug substance stability (HPLC); format: physicochemical
Description: At four weeks, one or two degradation peaks became detectable at 40° C. and 50° C., but the level of each impurity peak was still less than 0.02%.

[2] = target: T1, human ACE (Homo sapiens, UniProt P12821); experiment: ACE protease activity (Cerep, HUVEC, 3H-HGG conversion); format: biochemical
T1 construct: The source of ACE proteases was human endothelial cells (HUVEC); host or cells: HUVEC (human endothelial cells)
Description: The source of ACE proteases was human endothelial cells (HUVEC). ^3H-HGG, added to HUVEC, was converted to ^3H-hippuric acid and glycylglycine by ACE.

[3] = target: T2, VLA-4 (Homo sapiens, UniProt P05556+P13612); experiment: Purified VLA-4 Protein/Protein Assay with VCAM-Ig-AP; format: binding; design: endogenous in cells; host or cells: Jurkat (human T cell line)
Description: VLA-4 was purified from a detergent extract of a high expressing subclone of α4-transfected K562 cells by antibody affinity chromatography and immobilized on microtiter wells to establish a protein/protein competitive binding assay. VCAM-Ig-AP was bound to the purified VLA-4-coated plate in the absence or presence of oMePUPA-V (Lot #2) and 1 mM MnCl2. Plates were read at 405 nm and the data were analyzed using SoftMax v. 2.32 software.

[4] = target: T3, VLA-4 (Mus musculus, UniProt P09055+Q00651); experiment: VCAM-Ig Competitive Binding Assay on mouse splenocytes; conditions: Mn+2
T3 construct: from tissue; host or cells: mouse spleen cells

[5] = target: T2, VLA-4; experiment: VCAM-Ig Competitive Binding Assay on human PBLs; design: endogenous in cells; conditions: Mn+2
Description: PBLs, were isolated from peripheral blood of humans, sheep and dogs using methods described for sheep PBL (Abraham, W. M. et al. J. Clin. Invest. 93:776-787, 1994). The VCAM-Ig-AP Competitive Binding Assay was used to compare the binding of oMePUPA-V to these different cell types.

[6] = Solubility; format: physicochemical
[7] = target: T2, VLA-4; experiment: VLA-4-VCAM-Ig binding (Table 1; VLA-4 binding assays); design: endogenous in cells; host or cells: Jurkat (human T cell line); conditions: read-out: IC50 against VLA-4-VCAM-Ig binding
Description: (§1) A direct binding assay may also be employed to quantitate the inhibitory activity of the compounds of this invention. In this assay, a VCAM-IgG fusion protein containing the first two immunoglobulin domains of VCAM (D1D2) attached above the hinge region of an IgG1 molecule (“VCAM 2D-IgG”), is conjugated to a marker enzyme, such as alkaline phosphatase (“AP”). The synthesis of this VCAM-IgG fusion is described in PCT publication WO 90/13300, the disclosure of which is herein incorporated by reference. The conjugation of that fusion to a marker enzyme is achieved by cross-linking methods well-known in the art.
(§2) The VCAM-IgG enzyme conjugate is then placed in the wells of a multi-well filtration plate, such as that contained in the Millipore Multiscreen Assay System (Millipore Corp., Bedford, Ma.). Varying concentrations of the test inhibitory compound are then added to the wells followed by addition of VLA-4-expressing cells. The cells, compound and VCAM-IgG enzyme conjugate are mixed together and allowed to incubate at room temperature.
Following incubation, the wells are vacuum drained, leaving behind the cells and any bound VCAM. Quantitation of bound VCAM is determined by adding an appropriate colorimetric substrate for the enzyme conjugated to VCAM-IgG and determining the amount of reaction product. Decreased reaction product indicates increased binding inhibitory activity. […]

[8] = target: T2, VLA-4; experiment: VCAM-Ig Direct Binding Assay (DBA) on Jurkat cells; design: endogenous in cells; host or cells: Jurkat (human T cell line)
Description: as §1
as §2, with “The cells, compound and VCAM-IgG enzyme conjugate are mixed together and allowed to incubate at room temperature.” left out
Following incubation, the wells are vacuum drained, leaving behind the cells and any bound VCAM. Quantitation of bound VCAM is determined by adding an appropriate colorimetric substrate for the enzyme conjugated to VCAM-IgG and determining the amount of reaction product. […]
VCAM-Ig was constructed and purified as published (Jakubowski, A. et al. Cell Adhesion and Communication 3:131-142, 1995). […] Binding to VLA-4 was assessed on the human T cell line, Jurkat (α4β1). […]

[9] = target: T4, VLA-5 (Homo sapiens, UniProt P05556+P08648); experiment: Adhesion of K562 cells to Fn-120 (VLA-5 / α5β1-FN adhesion); format: cell-based
T4 construct: endogenous in cells; host or cells: K562 cells
Description: Untreated 96 well polystyrene flat bottom plates were coated with 5 μg/ml Fn-120 overnight at 4° C. The plates were washed twice with phosphate buffered saline (PBS) and blocked with 1% Bovine Serum Albumin (BSA) for 1 hour at room temperature. The plates were washed twice with TBS buffer containing 1 mM MnCl2 (assay buffer). K562 cells were labeled with 2 μM of the fluorescent dye, BCECF-AM (see section 4.1.3), and bound to the plate for 30 minutes at room temperature. The plates were inverted and washed three times and adherent cells were quantitated in a Cytofluor fluorescent platereader using an excitation wavelength of 485 nm and an emission wavelength of 530

T4 sequence (P08648 42-894 limits assumed): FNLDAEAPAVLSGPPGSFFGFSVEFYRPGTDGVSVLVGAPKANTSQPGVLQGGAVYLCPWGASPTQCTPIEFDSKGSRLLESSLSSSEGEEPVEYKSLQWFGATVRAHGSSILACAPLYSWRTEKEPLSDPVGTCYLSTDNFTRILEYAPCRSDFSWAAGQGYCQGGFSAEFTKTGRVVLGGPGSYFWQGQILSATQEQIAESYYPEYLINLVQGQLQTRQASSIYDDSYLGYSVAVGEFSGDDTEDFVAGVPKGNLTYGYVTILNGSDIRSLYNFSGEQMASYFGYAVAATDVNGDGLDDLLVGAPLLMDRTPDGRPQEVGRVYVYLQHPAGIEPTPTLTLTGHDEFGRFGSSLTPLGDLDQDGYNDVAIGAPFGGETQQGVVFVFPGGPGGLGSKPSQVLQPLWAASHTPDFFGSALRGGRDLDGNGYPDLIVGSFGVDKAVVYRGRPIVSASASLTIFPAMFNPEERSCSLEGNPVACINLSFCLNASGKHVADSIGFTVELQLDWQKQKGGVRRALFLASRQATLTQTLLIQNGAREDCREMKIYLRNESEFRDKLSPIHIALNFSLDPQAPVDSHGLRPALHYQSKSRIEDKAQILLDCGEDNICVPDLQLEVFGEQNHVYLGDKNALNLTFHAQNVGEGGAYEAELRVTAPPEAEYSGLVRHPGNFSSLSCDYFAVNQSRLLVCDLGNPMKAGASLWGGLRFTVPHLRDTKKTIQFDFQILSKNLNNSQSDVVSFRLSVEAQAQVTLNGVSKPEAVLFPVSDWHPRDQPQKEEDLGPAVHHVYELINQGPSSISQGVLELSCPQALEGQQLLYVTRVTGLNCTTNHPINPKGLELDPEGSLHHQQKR
T4 sequence (P08648 895-1049 partner limits assumed): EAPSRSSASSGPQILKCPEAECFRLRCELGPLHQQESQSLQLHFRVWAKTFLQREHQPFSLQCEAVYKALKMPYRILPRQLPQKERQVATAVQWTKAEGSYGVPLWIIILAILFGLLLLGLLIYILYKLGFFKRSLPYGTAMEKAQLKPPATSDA
T4 sequence (P05556 21-798): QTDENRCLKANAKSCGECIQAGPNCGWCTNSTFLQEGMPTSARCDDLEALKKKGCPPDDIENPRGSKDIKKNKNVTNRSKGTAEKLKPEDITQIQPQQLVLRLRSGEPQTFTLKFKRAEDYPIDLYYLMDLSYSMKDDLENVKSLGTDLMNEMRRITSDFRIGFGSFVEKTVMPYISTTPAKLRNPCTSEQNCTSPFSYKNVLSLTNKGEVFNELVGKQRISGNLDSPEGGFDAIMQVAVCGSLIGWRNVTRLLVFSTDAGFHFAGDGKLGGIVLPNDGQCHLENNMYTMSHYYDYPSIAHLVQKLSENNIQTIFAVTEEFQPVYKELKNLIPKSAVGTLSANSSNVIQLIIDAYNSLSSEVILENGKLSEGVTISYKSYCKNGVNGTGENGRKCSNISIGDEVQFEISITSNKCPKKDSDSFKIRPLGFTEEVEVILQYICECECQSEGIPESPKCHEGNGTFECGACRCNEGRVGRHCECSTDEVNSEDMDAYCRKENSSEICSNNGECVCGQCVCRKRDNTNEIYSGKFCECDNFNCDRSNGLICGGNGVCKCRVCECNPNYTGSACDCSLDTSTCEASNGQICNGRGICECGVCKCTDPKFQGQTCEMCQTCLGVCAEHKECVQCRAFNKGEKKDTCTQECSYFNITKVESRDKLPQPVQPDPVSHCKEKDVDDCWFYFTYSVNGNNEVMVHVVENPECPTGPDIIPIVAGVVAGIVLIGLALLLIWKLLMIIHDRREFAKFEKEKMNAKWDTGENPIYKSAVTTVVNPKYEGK
T2 sequence (P13612 34-1032): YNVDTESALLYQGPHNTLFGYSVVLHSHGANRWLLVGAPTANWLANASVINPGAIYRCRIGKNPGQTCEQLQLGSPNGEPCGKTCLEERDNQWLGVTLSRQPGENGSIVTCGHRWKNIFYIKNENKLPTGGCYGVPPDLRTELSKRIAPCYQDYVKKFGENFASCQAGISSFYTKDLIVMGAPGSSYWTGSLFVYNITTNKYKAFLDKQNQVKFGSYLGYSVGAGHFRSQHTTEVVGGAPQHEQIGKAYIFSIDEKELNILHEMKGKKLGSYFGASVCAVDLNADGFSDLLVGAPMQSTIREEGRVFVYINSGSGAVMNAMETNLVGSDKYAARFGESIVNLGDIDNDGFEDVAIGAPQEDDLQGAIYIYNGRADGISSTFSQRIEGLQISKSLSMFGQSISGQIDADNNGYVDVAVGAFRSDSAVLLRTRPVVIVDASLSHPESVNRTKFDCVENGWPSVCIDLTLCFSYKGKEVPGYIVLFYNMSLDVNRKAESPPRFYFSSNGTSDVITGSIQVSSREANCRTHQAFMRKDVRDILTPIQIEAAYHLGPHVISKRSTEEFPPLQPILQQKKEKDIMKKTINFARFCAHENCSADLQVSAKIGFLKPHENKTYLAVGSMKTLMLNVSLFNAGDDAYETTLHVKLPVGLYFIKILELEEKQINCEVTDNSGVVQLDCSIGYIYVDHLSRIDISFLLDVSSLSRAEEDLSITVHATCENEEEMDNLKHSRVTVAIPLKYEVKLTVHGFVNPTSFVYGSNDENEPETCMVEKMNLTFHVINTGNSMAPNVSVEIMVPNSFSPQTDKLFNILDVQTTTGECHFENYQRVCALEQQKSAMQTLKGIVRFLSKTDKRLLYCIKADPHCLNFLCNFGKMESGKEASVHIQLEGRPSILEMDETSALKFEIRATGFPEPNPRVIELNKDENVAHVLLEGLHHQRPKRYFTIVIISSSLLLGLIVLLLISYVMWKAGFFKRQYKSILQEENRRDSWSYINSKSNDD
T2 sequence (P05556 21-798): as the sequence (P05556 21-798) above
T1 sequence (P12821 30-1306): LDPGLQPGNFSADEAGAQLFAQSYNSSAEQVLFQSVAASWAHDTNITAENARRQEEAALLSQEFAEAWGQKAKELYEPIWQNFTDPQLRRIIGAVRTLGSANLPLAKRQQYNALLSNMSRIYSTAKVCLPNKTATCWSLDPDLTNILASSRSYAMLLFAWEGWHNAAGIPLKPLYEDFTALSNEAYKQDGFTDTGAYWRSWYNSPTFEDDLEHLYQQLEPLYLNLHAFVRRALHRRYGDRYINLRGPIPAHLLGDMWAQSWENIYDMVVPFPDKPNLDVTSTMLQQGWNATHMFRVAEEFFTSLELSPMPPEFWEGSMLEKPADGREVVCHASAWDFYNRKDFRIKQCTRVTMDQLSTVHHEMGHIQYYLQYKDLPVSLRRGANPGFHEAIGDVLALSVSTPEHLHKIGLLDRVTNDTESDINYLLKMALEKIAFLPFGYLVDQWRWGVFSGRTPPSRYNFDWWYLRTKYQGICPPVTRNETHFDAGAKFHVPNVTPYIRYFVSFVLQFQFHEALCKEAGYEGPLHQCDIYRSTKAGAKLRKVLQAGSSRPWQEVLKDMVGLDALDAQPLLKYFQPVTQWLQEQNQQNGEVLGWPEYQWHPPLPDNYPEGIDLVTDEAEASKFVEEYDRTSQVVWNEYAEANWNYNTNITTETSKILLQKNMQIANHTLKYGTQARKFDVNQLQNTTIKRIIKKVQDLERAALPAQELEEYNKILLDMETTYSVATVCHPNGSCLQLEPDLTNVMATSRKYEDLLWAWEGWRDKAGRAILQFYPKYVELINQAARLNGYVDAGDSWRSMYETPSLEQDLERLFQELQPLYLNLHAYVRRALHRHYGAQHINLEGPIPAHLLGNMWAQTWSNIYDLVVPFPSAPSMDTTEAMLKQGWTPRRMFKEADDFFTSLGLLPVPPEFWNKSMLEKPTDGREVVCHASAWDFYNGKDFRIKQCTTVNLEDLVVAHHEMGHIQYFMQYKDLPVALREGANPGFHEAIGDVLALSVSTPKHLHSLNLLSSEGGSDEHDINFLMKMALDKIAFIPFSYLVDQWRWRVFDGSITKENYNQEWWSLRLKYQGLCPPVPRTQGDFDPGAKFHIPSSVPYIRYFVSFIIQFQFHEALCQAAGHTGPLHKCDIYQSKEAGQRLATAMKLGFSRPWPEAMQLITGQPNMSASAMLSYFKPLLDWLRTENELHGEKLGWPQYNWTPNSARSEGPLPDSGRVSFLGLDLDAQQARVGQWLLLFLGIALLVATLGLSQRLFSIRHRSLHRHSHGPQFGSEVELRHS

With `Cc1ccccc1NC(=O)Nc1ccc(CC(=O)N2CCC[C@H]2C(=O)N[C@H](C)CC(=O)O)cc1` [oMePUPA-V] the “Bulk stability (40° C., 75% RH), time stable” value [1] was “stable >4 wk”, the ACE activity [2] was “clean” and the “inhibition of human ACE protease activity” value ([2]; at 10 μM, HUVEC) was “no inhibition”. The IC50 ([3]; 1 mM MnCl2, read-out: IC50, Purified VLA-4 VCAM-Ig binding) was 0.1 nM, the “potency on isolated VLA-4 relative to Jurkat cells in the binding assay” value ([3]; in the presence of Mn+2) was 80 fold and the IC50 [4] was 4 ± 2 nM. The IC50 [5] was 6 ± 1 nM, the “solubility in DMSO” value ([6]; DMSO) was “soluble” and the solubility ([6]; aqueous medium) was 120 µg/mL (≈ 257 µM). The IC50 [7] was 2.7 nM, the IC50 ([8]; 1 mM MnCl2, read-out: IC50 ± SD, Jurkat cell VCAM-Ig Binding) was 8 ± 1 nM and the “specificity for VLA-4” value ([8]; versus α4β7, VLA-5 and gpIIbIIIa) was > 10,000 fold. The “measurable activity against VLA-5” value [9] was greater than 100 µM, the “inhibition, K562 (VLA-5) Fn-120 adhesion” value ([9]; @ 100 μM, Mn+2, 100 µM) was “no inhibition; also recorded: no inhibition @” and the IC50 ([9]; read-out: IC50 against α5β1-FN adhesion) was greater than 100000 nM.
